The structures appear in SMILES notation.

Common to all, as to format: binding
For test [1], the target named is Torpedo AChR αγ subunit combination (Tetronarce californica, UniProt P02710+P02714). The test is described as follows: biochemical.
In test [2] the target is Torpedo AChR αδ subunit combination (Tetronarce californica, UniProt P02710+P02718). As to the kind of experiment: biochemical.
The target of test [3] is native Torpedo AChR (all four subunits) (Tetronarce californica, UniProt P02710+P02714+P02718). As to conditions: extracts of oocytes expressing all four AChR subunits; Fig. 1 A.
Chain of native Torpedo AChR (all four subunits) (P02710 25-461): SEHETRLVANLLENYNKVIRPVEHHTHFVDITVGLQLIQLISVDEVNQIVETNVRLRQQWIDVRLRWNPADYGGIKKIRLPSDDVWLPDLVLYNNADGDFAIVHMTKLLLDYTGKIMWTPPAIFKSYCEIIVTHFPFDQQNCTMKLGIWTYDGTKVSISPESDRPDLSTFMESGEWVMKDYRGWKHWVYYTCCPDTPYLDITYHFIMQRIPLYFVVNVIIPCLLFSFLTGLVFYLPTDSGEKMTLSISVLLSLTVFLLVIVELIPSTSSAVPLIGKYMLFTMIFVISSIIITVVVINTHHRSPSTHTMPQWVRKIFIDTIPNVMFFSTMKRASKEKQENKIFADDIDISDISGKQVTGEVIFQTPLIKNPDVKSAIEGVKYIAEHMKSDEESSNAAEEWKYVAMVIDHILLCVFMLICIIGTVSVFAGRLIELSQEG
Chain of native Torpedo AChR (all four subunits) (P02712 25-493, further chain): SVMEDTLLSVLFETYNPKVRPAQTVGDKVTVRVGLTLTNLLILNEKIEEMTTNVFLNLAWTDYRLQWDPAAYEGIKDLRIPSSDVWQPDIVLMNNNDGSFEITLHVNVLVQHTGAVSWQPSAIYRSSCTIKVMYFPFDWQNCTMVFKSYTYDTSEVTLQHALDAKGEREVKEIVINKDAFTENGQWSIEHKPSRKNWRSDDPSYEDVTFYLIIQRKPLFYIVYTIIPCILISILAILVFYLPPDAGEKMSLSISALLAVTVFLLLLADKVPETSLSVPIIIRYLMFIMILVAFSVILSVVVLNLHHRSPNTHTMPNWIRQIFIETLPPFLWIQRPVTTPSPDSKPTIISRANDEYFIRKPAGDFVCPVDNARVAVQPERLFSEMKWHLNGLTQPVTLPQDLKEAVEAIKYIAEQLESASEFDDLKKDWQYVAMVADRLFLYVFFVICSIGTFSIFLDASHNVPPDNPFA
Chain of native Torpedo AChR (all four subunits) (P02718 22-522): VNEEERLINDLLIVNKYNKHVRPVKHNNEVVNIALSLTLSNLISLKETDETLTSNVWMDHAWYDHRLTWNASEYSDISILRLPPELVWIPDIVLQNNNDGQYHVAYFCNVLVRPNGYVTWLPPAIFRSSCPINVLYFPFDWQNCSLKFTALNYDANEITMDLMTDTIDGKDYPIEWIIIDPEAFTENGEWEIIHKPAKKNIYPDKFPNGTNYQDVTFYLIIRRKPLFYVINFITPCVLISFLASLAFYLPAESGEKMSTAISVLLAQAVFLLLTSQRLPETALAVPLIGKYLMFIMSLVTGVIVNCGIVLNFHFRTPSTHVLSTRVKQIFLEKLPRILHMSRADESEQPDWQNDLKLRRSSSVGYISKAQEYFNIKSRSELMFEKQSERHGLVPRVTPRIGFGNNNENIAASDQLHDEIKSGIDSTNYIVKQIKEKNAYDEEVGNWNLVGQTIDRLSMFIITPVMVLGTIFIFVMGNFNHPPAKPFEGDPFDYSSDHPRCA
Chain of native Torpedo AChR (all four subunits) (P02714 18-506): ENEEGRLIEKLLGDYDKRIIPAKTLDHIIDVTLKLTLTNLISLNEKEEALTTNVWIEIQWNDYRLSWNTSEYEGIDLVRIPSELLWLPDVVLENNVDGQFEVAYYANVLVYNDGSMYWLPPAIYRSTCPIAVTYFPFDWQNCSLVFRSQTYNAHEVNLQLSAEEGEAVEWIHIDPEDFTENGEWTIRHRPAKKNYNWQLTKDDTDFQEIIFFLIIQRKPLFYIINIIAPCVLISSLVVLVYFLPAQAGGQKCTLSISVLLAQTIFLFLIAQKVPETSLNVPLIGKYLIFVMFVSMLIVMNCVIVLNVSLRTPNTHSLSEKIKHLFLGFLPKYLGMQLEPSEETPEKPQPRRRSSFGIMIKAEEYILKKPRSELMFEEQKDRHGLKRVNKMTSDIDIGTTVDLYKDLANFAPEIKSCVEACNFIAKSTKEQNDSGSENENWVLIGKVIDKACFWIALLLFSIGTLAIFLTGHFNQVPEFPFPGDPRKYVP

Chain of Torpedo AChR αδ subunit combination (P02718 22-522): as the sequence (P02718 22-522) above
Chain of Torpedo AChR αδ subunit combination (P02710 25-461): as the sequence (P02710 25-461) above
Chain of Torpedo AChR αγ subunit combination (P02710 25-461): as above
Chain of Torpedo AChR αγ subunit combination (P02714 18-506): as the sequence (P02714 18-506) above

The term IC50 denotes the midpoint of a concentration-inhibition curve. For the compound `COc1cc2c3cc1Oc1cc(ccc1O)C[C@@H]1c4c(cc(OC)c(O)c4Oc4ccc(cc4)C[C@@H]3N(C)CC2)CC[N+]1(C)C` [curare], the IC50 in test [1] was roughly 20 µM; in test [2] it was 200 µM. The “shape of curare inhibition curve of αBgt binding” value in test [3] was “biphasic curve”.

For the origin of these results see paper PMC2288882 (The Journal of Cell Biology, 1991).
